pEC50, pIC50: −log10 of the molar value.
Key:
[1] = biological target: Multidrug resistance-associated protein 1 (Homo sapiens, UniProt P33527); experiment: Inhibition of multidrug resistance associated protein type 1 (MRP1) assayed by an accumulation assay in COR.L23/R cells; format: functional, cell-based
[2] = biological target: ATP-dependent translocase ABCB1 (Mus musculus, UniProt P06795); experiment: Inhibitory activity against P-glycoprotein (Pgp) using accumulation assay for Pgp expressing EMT6/AR1.0 cells.; format: functional
Chain of ATP-dependent translocase ABCB1 (P06795 whole entry): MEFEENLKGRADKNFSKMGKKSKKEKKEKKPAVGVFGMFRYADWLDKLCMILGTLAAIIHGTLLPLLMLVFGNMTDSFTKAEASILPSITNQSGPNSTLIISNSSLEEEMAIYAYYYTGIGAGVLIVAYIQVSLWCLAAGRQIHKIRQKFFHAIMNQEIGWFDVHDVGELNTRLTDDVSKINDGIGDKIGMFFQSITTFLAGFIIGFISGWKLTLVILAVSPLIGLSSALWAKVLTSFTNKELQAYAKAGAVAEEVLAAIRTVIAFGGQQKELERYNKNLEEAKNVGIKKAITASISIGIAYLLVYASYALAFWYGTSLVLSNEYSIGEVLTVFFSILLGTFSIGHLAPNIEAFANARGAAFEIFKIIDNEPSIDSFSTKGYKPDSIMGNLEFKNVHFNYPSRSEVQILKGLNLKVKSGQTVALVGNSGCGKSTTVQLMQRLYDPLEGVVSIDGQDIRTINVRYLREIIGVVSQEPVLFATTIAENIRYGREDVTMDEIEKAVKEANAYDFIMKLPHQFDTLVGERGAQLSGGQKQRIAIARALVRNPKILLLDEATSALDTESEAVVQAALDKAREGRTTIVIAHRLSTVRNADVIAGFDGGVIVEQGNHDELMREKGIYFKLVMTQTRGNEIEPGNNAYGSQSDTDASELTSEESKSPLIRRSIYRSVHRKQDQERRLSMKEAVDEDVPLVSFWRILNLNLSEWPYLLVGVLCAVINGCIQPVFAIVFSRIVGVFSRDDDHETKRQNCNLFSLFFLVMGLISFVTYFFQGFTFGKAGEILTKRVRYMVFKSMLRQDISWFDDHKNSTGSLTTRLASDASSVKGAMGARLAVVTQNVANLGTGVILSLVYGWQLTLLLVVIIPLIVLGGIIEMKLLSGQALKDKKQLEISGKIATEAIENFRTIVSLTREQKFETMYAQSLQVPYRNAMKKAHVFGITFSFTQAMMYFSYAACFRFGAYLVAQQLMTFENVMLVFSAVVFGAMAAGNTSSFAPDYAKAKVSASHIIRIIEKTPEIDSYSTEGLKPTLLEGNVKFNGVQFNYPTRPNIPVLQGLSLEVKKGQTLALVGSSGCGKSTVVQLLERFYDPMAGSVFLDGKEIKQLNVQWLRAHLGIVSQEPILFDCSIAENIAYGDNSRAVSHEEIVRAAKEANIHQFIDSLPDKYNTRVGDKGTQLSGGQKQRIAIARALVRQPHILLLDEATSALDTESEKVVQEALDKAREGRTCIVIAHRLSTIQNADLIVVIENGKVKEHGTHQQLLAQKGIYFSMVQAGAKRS

[3] = Compound was evaluated for its inhibitory activity against multidrug resistance associated protein type 1 (MRP) using potentiation assay; format: functional, Homo sapiens
EMT6 = experiment: Compound was evaluated for its inhibitory activity against P-glycoprotein (Pgp) using potentiation assay; format: functional, cell-based; settings: Mus musculus

Chain of Multidrug resistance-associated protein 1 (P33527 whole entry): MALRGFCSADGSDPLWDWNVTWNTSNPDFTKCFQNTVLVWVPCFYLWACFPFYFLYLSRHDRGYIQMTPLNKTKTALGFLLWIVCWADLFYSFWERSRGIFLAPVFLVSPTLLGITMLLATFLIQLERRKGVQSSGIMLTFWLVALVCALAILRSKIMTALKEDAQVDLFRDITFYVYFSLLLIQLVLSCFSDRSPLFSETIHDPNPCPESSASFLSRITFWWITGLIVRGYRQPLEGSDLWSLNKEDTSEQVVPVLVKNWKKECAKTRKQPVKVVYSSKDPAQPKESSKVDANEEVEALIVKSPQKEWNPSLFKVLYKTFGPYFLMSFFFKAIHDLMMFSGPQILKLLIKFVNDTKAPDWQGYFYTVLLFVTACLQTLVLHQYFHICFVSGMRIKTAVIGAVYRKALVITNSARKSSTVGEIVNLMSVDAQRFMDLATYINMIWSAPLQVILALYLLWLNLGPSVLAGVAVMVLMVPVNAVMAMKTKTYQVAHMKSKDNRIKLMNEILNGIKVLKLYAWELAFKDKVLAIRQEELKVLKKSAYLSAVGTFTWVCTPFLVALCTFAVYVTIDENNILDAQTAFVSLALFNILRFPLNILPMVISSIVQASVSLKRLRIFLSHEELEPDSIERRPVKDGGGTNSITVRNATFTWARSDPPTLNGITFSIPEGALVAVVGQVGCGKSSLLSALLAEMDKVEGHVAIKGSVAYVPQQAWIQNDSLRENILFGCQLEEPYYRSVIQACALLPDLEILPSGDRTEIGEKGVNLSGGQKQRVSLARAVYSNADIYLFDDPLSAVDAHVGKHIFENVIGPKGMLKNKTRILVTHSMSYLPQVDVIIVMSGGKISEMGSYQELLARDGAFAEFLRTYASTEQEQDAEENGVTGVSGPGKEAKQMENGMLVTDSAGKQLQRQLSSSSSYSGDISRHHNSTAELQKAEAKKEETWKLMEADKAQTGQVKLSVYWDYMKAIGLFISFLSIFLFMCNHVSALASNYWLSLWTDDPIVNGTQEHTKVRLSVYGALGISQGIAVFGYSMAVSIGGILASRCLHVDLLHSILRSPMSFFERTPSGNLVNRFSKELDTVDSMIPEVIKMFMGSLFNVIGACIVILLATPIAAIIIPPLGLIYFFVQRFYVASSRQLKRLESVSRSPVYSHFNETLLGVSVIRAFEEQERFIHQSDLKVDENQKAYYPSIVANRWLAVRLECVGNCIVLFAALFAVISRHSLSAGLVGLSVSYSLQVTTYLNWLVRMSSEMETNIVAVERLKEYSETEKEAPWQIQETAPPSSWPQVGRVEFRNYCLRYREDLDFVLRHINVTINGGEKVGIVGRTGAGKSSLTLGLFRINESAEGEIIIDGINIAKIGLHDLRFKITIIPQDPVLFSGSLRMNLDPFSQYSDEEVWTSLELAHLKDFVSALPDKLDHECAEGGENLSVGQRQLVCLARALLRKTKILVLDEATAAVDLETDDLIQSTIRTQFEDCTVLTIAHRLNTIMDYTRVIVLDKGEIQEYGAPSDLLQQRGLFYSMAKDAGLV

Row | Compound | pIC50 [1] | pIC50 [2] | pEC50 [3] | pEC50 (EMT6)
1 | CCCCCCn1c(-c2ccc(N(C)C)cc2)nc2ccccc2c1=O | < 4.00 | 4.40 |  | 
2 | COc1cc2c(cc1OC)CN(CCn1c(-c3ccc(N(C)C)cc3)nc3c(Cl)cccc3c1=O)CC2 | 5.54 | 5.97 |  | 
3 | COc1cc2c(cc1OC)CN(CCn1c(-c3ccc(N(C)C)cc3)nc3ccc(N)cc3c1=O)CC2 | 5.12 | 5.70 |  | 
4 | CCCc1cccc(-c2nc3ccccc3c(=O)n2CCN2CCc3cc(OC)c(OC)cc3C2)c1 | 6.00 | 6.10 |  | 
5 | COc1cc2c(cc1OC)CN(CCn1c(-c3ccc(N(C)C)cc3)nc3c(OC)cccc3c1=O)CC2 | 4.82 | 7.30 |  | 
6 | CN(C)c1ccc(-c2nc3ccccc3c(=O)n2Cc2ccccc2)cc1 | < 4.00 | 4.39 |  | 
7 | COc1cc2c(cc1OC)CN(CCn1c(-c3ccc(-c4ccccc4)cc3)nc3ccccc3c1=O)CC2 | 6.00 | 5.99 |  | 
8 | CN(C)c1ccc(-c2nc3ccccc3c(=O)n2CCc2ccncc2)cc1 | 5.48 | 5.00 |  | 
9 | COc1cc2c(cc1OC)CN(CCn1c(-c3ccc(N(C)C)cc3)nc3cc(N)ccc3c1=O)CC2 | 4.73 | 5.14 |  | 
10 | CN(C)c1ccc(-c2nc3ccccc3c(=O)n2CCN2CCN(c3ncccn3)CC2)cc1 | 4.44 | 6.41 |  | 
11 | COc1cc2c(cc1OC)CN(CCn1c(-c3ccc(N(C)C)cc3)nc3c(C)cccc3c1=O)CC2 | 5.20 | 6.20 |  | 
12 | COc1cc2c(cc1OC)CN(CCn1c(-c3ccc(N(C)C)cc3)nc3cccc(Cl)c3c1=O)CC2 | 5.42 | 6.80 |  | 
13 | COc1cc2c(cc1OC)CN(CCn1c(-c3ccc(C(C)C)cc3)nc3ccccc3c1=O)CC2 | 6.30 | 6.00 |  | 
14 | COc1ccc(CCN(C)CCn2c(-c3ccc(N(C)C)cc3)nc3ccccc3c2=O)cc1OC | 4.43 | 5.72 |  | 
15 | COc1cc2c(cc1OC)CN(CCn1c(-c3ccc4c(c3)OCO4)nc3ccccc3c1=O)CC2 | 5.82 | 5.43 |  | 
16 | COc1cc2c(cc1OC)CN(CCn1c(-c3ccc(N(C)C)cc3)nc3cc([N+](=O)[O-])ccc3c1=O)CC2 | 5.69 | 5.96 |  | 
17 | CCN(CC)c1ccc(-c2nc3ccccc3c(=O)n2CCN2CCc3cc(OC)c(OC)cc3C2)cc1 | < 5.00 | 5.89 |  | 
18 | COc1cc2c(cc1OC)CN(CCn1c(-c3ccc(N(C)C)cc3)nc3ccc(Cl)cc3c1=O)CC2 | 5.81 | 5.77 |  | 
19 | COc1cc2c(cc1OC)CN(CCn1c(-c3ccccc3O)nc3ccccc3c1=O)CC2 | 4.02 |  |  | 
20 | CN(C)c1ccc(-c2nc3ccccc3c(=O)n2CCN2CCc3ccccc3C2)cc1 | 5.49 | 5.30 |  | 
21 | CN(C)c1ccc(-c2nc3ccccc3c(=O)n2CC2CCCCC2)cc1 | 5.00 | 4.85 |  | 
22 | COc1cc(C(=O)N2CCN(CCn3c(-c4ccc(N(C)C)cc4)nc4ccccc4c3=O)CC2)cc(OC)c1OC | 5.14 | 5.38 |  | 
23 | COc1cc2c(cc1OC)CN(CCn1c(-c3ccc(N(C)C)cc3)nc3ccc([N+](=O)[O-])cc3c1=O)CC2 | 6.40 | 6.22 |  | 
24 | COc1cc2c(cc1OC)CN(CCn1c(-c3ccccc3)nc3ccccc3c1=O)CC2 | 5.55 | 5.10 |  | 
25 | CN(C)c1ccc(-c2nc3ccccc3c(=O)n2CCN2CCN(Cc3ccccc3)CC2)cc1 | 4.41 | 5.68 |  | 
26 | COc1cc2c(cc1OC)CN(CCn1c(-c3ccc(N(C)C)cc3)nc3ccccc3c1=O)CC2 | 5.98 | 5.97 | 5.52 | 5.48
27 | COc1cc2c(cc1OC)CN(CCn1c(-c3ccc(N(C)C)cc3)nc3cc(Cl)ccc3c1=O)CC2 | 5.88 | 5.87 |  | 
28 | COc1cc2c(cc1OC)CN(CCn1c(-c3cccc(N(C)C)c3)nc3ccccc3c1=O)CC2 | 5.35 | 5.80 |  | 
29 | COc1cc2c(cc1OC)CN(CCn1c(-c3ccc4ccccc4c3)nc3ccccc3c1=O)CC2 | 6.05 | 6.07 |  | 
30 | COc1cc(C(=O)C(=O)N2CCCC[C@H]2C(=O)OC(CCCc2cccnc2)CCCc2cccnc2)cc(OC)c1OC [BIRICODAR] | 5.29 | 5.30 |  | 

Reference: ChEMBL document CHEMBL1135064, “Studies on quinazolinones as dual inhibitors of Pgp and MRP1 in multidrug resistance” (Bioorg Med Chem Lett, 2002)
